Measured values taken from paper PMC11279411, “Structure-Based Identification of Novel Histone Deacetylase 4 (HDAC4) Inhibitors” (Pharmaceuticals, 2024).
Read-outs that look alike come from different tables or passages of the source.

Assays:
HDAC3 = HDAC3 (Homo sapiens, UniProt O15379); assay: HDAC3 fluorogenic activity assay (BPS Bioscience kit); details: for relative percent activity of HDAC3 (activity retained) / decrease of HDAC3 activity: 100 μM compound; for relative percent activity of HDAC3 (activity retained): compared to absence of inhibitor
Method: (§2) HDAC3 and HDAC4 activity assays were performed using fluorogenic assay kits obtained from BPS Bioscience (San Diego, CA, USA) by following the protocol that is supplied by the manufacturer. Briefly, purified enzyme (40 pg/μL HDAC3 or 1.2 pg/μL HDAC4) in a total of 50 μL buffer containing 0.1% BSA was incubated with substrate (20 μM for HDAC3 and 2 μM for HDAC4) at 37 °C for 30 min in a 96-well plate. A fluorescence developer (50 μL) was added and the plate was incubated at room temperature for a further 15 min. The activity of the enzymes in the absence and presence of compounds was measured on a BioTek Cytation 5 plate reader, exciting the samples at 350 nm and measuring emission at 450 nm. Compounds were prepared as 10 mM stocks in DMSO, diluted to 1 mM in 20 mM NaHEPES, 150 mM NaCl, pH 7.4 buffer, and were screened at 100 μM in the assays at least in duplicate. A positive control with 1% DMSO added in lieu of an inhibitor and a negative control without enzyme were also prepared in each assay plate. The negative control was subtracted from all fluorescence values, while the positive control was used as the reference for 100% activity of the enzyme.

HDAC4 = HDAC4 (Homo sapiens, UniProt P56524); assay: HDAC4 fluorogenic activity assay (BPS Bioscience kit); details: for relative percent activity of HDAC4 (activity retained): 100 μM compound, compared to absence of inhibitor; for IC50 fold lower for HDAC4 than HDAC3: selectivity HDAC4 over HDAC3 from IC50 values
Method: as §2

[1] = test system: human breast carcinoma MDA-MB231 cell line; assay: MTT cell viability assay, MDA-MB231; details: for IC50 / viability at 100 µM: MDA-MB-231, 48 h; for IC50: read-out: IC50 (cell viability); for viability at 100 µM: read-out: Relative cell viability
Method: (§1) Cell viability assays were determined using Methyl Thiazolyl Tetrazolium (MTT) assay (Travigen, Gaithersburg, MD, USA). A total of 5 × 10^3 SW780 (human transitional urinary bladder cancer cell line) or 1 × 10^4 (human triple-negative breast cancer cell line MDA-MB231, American Type Culture Collection [ATCC], Rockville, MD, USA) in 100 µL of culture media were seeded to each well of 96-well culture plates. These cell lines were chosen based on previous work. The MDA-MB231 and SW780 cell lines were cultured in Dulbecco’s modified Eagle’s medium (DMEM) with 10% or 5% heat-inactivated fetal bovine serum, respectively, 100 U/mL penicillin, and 100 µg/mL streptomycin. Cultures were maintained in 5% CO2 at 37 °C and subcultured every 2–3 days. At 24 h after seeding, cells were treated with various concentrations of potential HDAC inhibiting compounds for 48 h (100 µM for initial screening, […], 1, 10, 100, 250, and 500 µM for the dose–response experiment). Subsequently, 10 µL of MTT reagent was added to each well and incubated for 4 h, followed by the addition of 100 µL of detergent reagent. The plate was incubated overnight. The reduced MTT reagent in cultures was measured at 570 nm by using an ELISA reader (Bio-Tek, Winooski, VT, USA). The IC50 for each compound was calculated from fitted nonlinear regression dose–response curves.

[2] = test system: transitional urothelial carcinoma SW780 cell line; assay: MTT cell viability assay, SW780; details: Homo sapiens; for IC50 / viability at 100 µM: SW780, 48 h; for IC50: read-out: IC50 (cell viability); for viability at 100 µM: read-out: Relative cell viability
Method: as §1

[3] = read-out: IC50 (μM) for HDAC3, highest concentration 500 μM
[4] = read-out: IC50 (μM) for HDAC4, highest concentration 500 μM

Sequence of HDAC4 (P56524 whole entry): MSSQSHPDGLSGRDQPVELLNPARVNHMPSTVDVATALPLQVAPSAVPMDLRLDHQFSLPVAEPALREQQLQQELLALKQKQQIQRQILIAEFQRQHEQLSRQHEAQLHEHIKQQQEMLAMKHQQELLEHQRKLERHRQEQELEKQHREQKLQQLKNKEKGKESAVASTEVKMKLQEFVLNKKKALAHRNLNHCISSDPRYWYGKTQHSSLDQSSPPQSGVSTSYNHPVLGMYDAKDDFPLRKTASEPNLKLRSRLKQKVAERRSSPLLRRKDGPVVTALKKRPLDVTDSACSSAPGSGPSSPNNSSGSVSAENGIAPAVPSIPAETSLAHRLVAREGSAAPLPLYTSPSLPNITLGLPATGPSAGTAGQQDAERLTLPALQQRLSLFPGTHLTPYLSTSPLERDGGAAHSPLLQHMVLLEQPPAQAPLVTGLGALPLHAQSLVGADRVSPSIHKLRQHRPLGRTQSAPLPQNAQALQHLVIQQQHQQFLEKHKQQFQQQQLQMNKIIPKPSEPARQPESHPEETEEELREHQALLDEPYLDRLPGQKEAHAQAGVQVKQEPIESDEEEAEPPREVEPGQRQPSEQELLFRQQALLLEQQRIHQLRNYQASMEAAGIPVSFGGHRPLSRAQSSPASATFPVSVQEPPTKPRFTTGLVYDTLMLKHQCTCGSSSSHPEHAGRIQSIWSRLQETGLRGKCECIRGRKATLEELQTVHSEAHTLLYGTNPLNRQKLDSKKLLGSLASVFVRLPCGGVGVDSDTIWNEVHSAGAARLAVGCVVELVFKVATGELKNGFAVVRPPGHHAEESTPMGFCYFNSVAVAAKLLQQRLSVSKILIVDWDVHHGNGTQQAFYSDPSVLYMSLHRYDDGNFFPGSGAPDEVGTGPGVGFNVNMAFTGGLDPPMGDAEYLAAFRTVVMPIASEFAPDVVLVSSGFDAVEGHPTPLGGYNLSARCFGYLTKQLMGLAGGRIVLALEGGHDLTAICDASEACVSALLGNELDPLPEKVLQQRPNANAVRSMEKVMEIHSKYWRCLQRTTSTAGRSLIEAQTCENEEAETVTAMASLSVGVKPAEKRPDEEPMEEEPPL
Sequence of HDAC3 (O15379 whole entry): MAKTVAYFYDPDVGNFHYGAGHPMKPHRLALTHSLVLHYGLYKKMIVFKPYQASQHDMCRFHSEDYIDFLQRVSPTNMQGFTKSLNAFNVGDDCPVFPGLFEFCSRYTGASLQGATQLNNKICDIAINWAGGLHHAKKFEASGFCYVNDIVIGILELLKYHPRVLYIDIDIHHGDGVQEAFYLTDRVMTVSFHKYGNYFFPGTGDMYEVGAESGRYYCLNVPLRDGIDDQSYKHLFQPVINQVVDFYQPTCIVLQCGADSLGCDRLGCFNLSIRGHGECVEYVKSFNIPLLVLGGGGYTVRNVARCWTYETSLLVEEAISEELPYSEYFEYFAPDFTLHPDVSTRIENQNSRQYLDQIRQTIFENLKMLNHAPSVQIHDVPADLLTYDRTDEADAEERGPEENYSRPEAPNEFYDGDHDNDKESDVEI
Sequence of HDAC3 (Q9Y618 395-489 partner limits assumed): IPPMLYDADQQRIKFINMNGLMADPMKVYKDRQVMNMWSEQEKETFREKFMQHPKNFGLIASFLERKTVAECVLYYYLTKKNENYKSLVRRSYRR

| IC50 (HDAC3; [3]) [µM] | SMILES | relative percent activity of HDAC4 (activity retained) (HDAC4) | IC50 ([1]; Homo sapiens) [µM] | viability at 100 µM ([1]; Homo sapiens) [%] | IC50 [2] [µM] | IC50 (HDAC3) [µM] | also measured |
| --- | --- | --- | --- | --- | --- | --- | --- |
| > 500 | CC12CCC(C(NC(=S)NN)C1=O)C2(C)C (centres unmarked) [Compound 36425] |  |  |  |  |  | IC50 (HDAC4; [4]): 480 ± 260 µM |
| > 500 | CCOC(=O)C(=CNc1ccccc1Cl)C(=O)OCC [Compound 79887] |  |  |  |  |  |  |
| 25 ± 7 | NS(=O)(=O)c1ccc(N=Nc2ccc(=O)[nH]c2O)cc1 [Compound 134199] | ≤ 40% |  |  |  |  | Relative cell viability ([1]; 100 µM): little potency; relative percent activity of HDAC3 (activity retained) (HDAC3): ≤ 40%; IC50 (HDAC4; [4]): 33 ± 12 µM |
|  | CCCn1cnc2c(Sc3c([N+](=O)[O-])ncn3C)nc(N)nc21 [Compound 44584] | unchanged | 137 ± 18 | < 60 | 213 ± 13 | > 500 | decrease of HDAC3 activity (HDAC3): 60% |
|  | COc1cc(C2NC(=O)C(C#N)=C(Nc3cccc(C)c3)S2)ccc1O (centres unmarked) [Compound 319435] |  |  |  |  | > 500 | IC50 (HDAC4): 150 ± 50 µM; IC50 fold lower for HDAC4 than HDAC3 (HDAC4): at least 2 fold |
|  | O=C(Nc1ccc(C2=NCCN2)cc1)c1ccc(Cl)c(C(=O)Nc2ccc(C3=NCCN3)cc2)c1 [Compound 67436] | ≤ 40% | 138 ± 23 | < 60 | 131 ± 26 | 9.2 ± 5.2 | viability at 100 µM [2]: < 50%; relative percent activity of HDAC3 (activity retained) (HDAC3): ≤ 40%; HDAC3 IC50 relative to that for HDAC4 (HDAC3; selectivity HDAC3 over HDAC4 from IC50 values): five times lower; IC50 (HDAC4): 47 ± 28 µM |
| > 500 | CCOC(=O)C1C(=O)C(=O)N(C(C)C)C1C(=O)OCC (centres unmarked) [Compound 55172] |  |  |  |  |  |  |
|  | COc1ccc2c(c1)NP(=S)(Oc1ccccc1)N2 (centres unmarked) [Compound 88402] | < 40% |  |  |  | 210 ± 60 | Relative cell viability ([1]; MDA-MB231, 100 µM compound, 48 h, untreated cells = 100%): did not show activity; relative percent activity of HDAC3 (activity retained) (HDAC3): 75%; IC50 (HDAC4): 100 ± 40 µM; IC50 fold lower for HDAC4 than HDAC3 (HDAC4): at least 2 fold |
|  | CCOC(=O)C(=NO)C1=CSC2=NNC(C)(C)N12 [Compound 299968] |  | 113 ± 19 | < 60 | 300 ± 17 | > 500 | IC50 (HDAC4): 250 ± 170 µM; IC50 fold lower for HDAC4 than HDAC3 (HDAC4): at least 2 fold |
|  | NC(=S)NN=Cc1cc(-c2cccc(N)c2)ccn1 [Compound 195327] | unchanged | 37 ± 17 | < 60 | 89 ± 48 | > 500 | viability at 100 µM [2]: < 50%; decrease of HDAC3 activity (HDAC3): 80%; IC50 (μM) for HDAC3 (HDAC3; highest concentration 500 μM): no inhibition; IC50 (μM) for HDAC4 (HDAC4; highest concentration 500 μM): did not inhibit |
|  | COc1cccc2c1cc([N+](=O)[O-])c1c(C(=O)O)cc3c(c12)OCO3 [Compound 11926] |  | 126 ± 10 | < 60 | 223 ± 49 | > 500 | viability at 500 µM ([1]; Homo sapiens, MDA-MB-231, read-out: cell viability): 9%; viability at 100 µM [2]: < 50%; viability at 500 µM ([2]; SW780, read-out: cell viability): 45% |
| > 500 | O=C(CN1CCOCC1)N1CCOCC1 [Compound 51936] |  |  |  |  |  | IC50 (HDAC4; [4]): 550 ± 350 µM |
| > 500 | CN(C)c1ncnc2c1ncn2-c1ccccc1 [Compound 34488] | unchanged |  |  |  |  | decrease of HDAC3 activity (HDAC3): 50% |
| > 500 | O=[N+]([O-])c1cc(-c2cccnc2)n[nH]1 [Compound 4135] |  |  |  |  |  | IC50 (HDAC4; [4]): 410 ± 240 µM |
